# Test results as given in patent US6696293B2, “Process for producing carotenoids and biological materials useful therefor” (Roche Vitamins Inc., priority 2000, dated 2004).
# System: P. rhodozyma ATCC 96594
# Assay: Growth of P. rhodozyma colonies on SHAM-containing YPD-agar
# Assay type: cell-based, Phaffia rhodozyma
# Conditions: 3 day-cultivation at 20° C.; for Relative colony diameter (%): relative to control colonies without SHAM
# Protocol: To examine the effects of the inhibition of KCN-resistant respiration mediated by alternative oxidase on the growth of P. rhodozyma, SHAM was added to a culture of P. rhodozyma on YPD-agar medium. SHAM was dissolved in ethanol and added to the YPD-agar medium to give 0.05, 0.15, 0.30, 0.45 and 0.90 mg/ml as a final concentration. After dilution, 2×10^7 cells/ml of P. rhodozyma ATCC 96594 were spread on the media. After a 3 day-cultivation at 20° C., colonies were counted. […] However, the colonies that grew on SHAM-containing media were smaller than the colonies that grew on the control media.
smiles,measurement,setting,value
"O=C(NO)c1ccccc1O [SHAM, Salicylhydroxamic acid]",Relative colony diameter (%),SHAM 0.05 mg/ml in YPD-agar,100%
same,Relative colony diameter (%),SHAM 0.15 mg/ml in YPD-agar,70%
same,Relative colony diameter (%),SHAM 0.30 mg/ml in YPD-agar,40%
same,Relative colony diameter (%),SHAM 0.45 mg/ml in YPD-agar,30%
same,Relative colony diameter (%),SHAM 0.90 mg/ml in YPD-agar,12%
same,Number of colonies that grew on SHAM-containing YPD agar,"SHAM 0.05-0.90 mg/ml, compared with control medium without SHAM",almost the same as that on control medium
